Measurements taken from paper PMC8861431, “Tissue Pharmacokinetic Properties and Bystander Potential of Hypoxia-Activated Prodrug CP-506 by Agent-Based Modelling” (Frontiers in Pharmacology, 2022).
Where two headings read alike, the source gives them in different places.

Key:
HCT-116 WT cell line = assay: Anti-proliferative IC50 assay (SRB); format: cell-based, human; conditions: for IC50: Homo sapiens, 4 h exposure
Excerpt: (§1) The HCT-116 cell line was purchased from the American Type Culture Collection (Manassas, VA). A POR-overexpressing clone (POR-R) was generated by transfecting the parental cell line with a pBRP expression vector encoding an N-terminal truncated soluble version of the human POR gene ([Foehrenbacher et al., 2013a]; [Guise et al., 2020]). Ectopic expression is driven by the human cytomegalovirus (CMV) major immediate-early promoter. Downstream of POR is a human elongation factor-1 alpha (EF-1 alpha) promoter, which drives expression of mRuby and the puromycin resistance gene pac (puromycin N-acetyltransferase). A POR-null clone (PORG-ko) was generated as previously described ([Su et al., 2013]). POR-null clones were then transfected with a pEGFP-N1 plasmid encoding enhanced green fluorescent protein (EGFP) and geneticin resistance to permit identification upon co-culture ([Hong et al., 2018b]). Cell lines were maintained by weekly subculture in T-flasks containing alpha minimal essential medium (αMEM) with 5% foetal bovine serum (FBS) for a maximum of 24 passages or 90 days (whichever came first). The culture medium was further supplemented with 1 mg/ml geneticin or 2 µM puromycin for the routine maintenance of the POR-null and POR-overexpressing clones respectively. All cultures were re-established from STR-authenticated, mycoplasma negative frozen stocks.
(§2) Cells (700–1,000 per well) were seeded with 100 µl culture medium into 96-well plates and left to attach for 2 h in a humidified 37°C incubator. Compounds were prepared in culture medium and serially diluted (1:3) in the well volume. Plates were returned to a humidified 37°C incubator for the duration of the drug exposure (4 h). Aerobic experiments were performed under standard tissue culture conditions (21% O2), and the anoxic experiments were performed in parallel in a 5% H2/Pd catalyst anaerobic chamber (Shellab Bactron, Sheldon manufacturing Inc., Cornelius, OR) using pre-equilibrated media and plasticware. All anoxia experiments were conducted using a catalyst-scrubbed anaerobic chamber, unless otherwise specified, with gas oxygen measurements of <1 ppm O2. Cells were then washed three times and left to grow for 96 h before cell density determination using a sulforhodamine B (SRB) assay ([Vichai and Kirtikara, 2006]). To this end, the cells were fixed by layering 50 µl of trichloroacetic acid (40% w/v in MilliQ water) on top of the culture media (150 µl) in each well for 1 h at 4°C. Plates were rinsed under running tap water and stained with 50 µl of SRB (0.4% w/v in MilliQ water containing 1% v/v acetic acid) for 30 min at room temperature. Plates were rapidly destained by rinsing three times in tap water containing 1% (v/v) acetic acid. The stain was solubilized by adding 100 µl of 10 mM unbuffered Tris base to each well with gentle rocking for 1 h. Plates were read on a Biotek ELx808 Absorbance Microplate Reader at 490 nm using KC4 software. The IC50 value (concentration required to reduce staining to 50% of the untreated control on the same plate) for each compound was determined by interpolation using a 4-parameter logistic regression model.

[1] = tested on: POR-R cell line (POR-overexpressing HCT-116); assay: Anti-proliferative IC50 assay (SRB); format: cell-based, human; conditions: for IC50: Homo sapiens, HCT-116, 4 h exposure
Excerpt: as §1, §2

[2] = tested on: PORko-G cell line (POR-knockout HCT-116); assay: Anti-proliferative IC50 assay (SRB); format: cell-based, human; conditions: for IC50: Homo sapiens, HCT-116, 4 h exposure
Excerpt: as §1, §2

[3] = ref Van Der Wiel et al., 2021; cited from earlier work
[4] = anoxic <1 ppm O2, 96 h drug-free proliferation, read-out: Anoxic IC50 (anti-proliferative)
[5] = normoxic 21% O2, 96 h drug-free proliferation, read-out: Aerobic IC50 (anti-proliferative)

## CCN1CCN(C(=O)c2cc(N(CCBr)CCOS(C)(=O)=O)c(S(C)(=O)=O)cc2[N+](=O)[O-])CC1 [CP-506, 2-[(2-bromoethyl)-5-[(4-ethyl-1-piperazinyl)carbonyl]-2-(methylsulfonyl)-4-nitroanilino]ethyl methanesulfonate]
HCT-116 WT cell line; [4]
  IC50: 12.8 ± 3.7 µM
HCT-116 WT cell line; [5]
  IC50: 257 ± 37 µM
HCT-116 WT cell line; anti-proliferative assay
  Fold lower IC50 under anoxic vs aerobic conditions: 20.1 fold
[1]; [4]
  IC50: 2.5 ± 0.3 µM
[1]; [5]
  IC50: 120 ± 13 µM
[1]; anti-proliferative assay
  Fold lower IC50 under anoxic vs aerobic conditions: 48.6 fold
[2]; PORko-G, anoxic <1 ppm O2, 96 h drug-free proliferation, read-out: Anoxic IC50 (anti-proliferative)
  IC50: 33.1 ± 5.6 µM
[2]; PORko-G, normoxic 21% O2, 96 h drug-free proliferation, read-out: Aerobic IC50 (anti-proliferative)
  IC50: 240 ± 26 µM
[2]; PORko-G, anti-proliferative assay
  Fold lower IC50 under anoxic vs aerobic conditions: 7.3 fold
[2]; anti-proliferative assay, anoxia
  Differential in anoxic sensitivity between PORko-G and POR-R cell lines: 13 fold
[3]
  O2 concentration above which prodrug activation and cytotoxicity are completely inhibited: above 1 µM O2
